Test results as given in patent US20230202981A1, “NOVEL SMALL MOLECULES FOR TARGETED DEGRADATION OF UNTARGETABLE KRAS IN CANCER THERAPY” (Pillai Universal LLC, priority 2020, published 2023).

Experiments:
Format in all cases: cell-based
[1] = test system: KRAS G12C mutant cell lines; assay: Cytotoxic effect on NCI-Panel of 10 KRAS G12C mutant cell lines
p53 = assay: Expression of p53 and apoptosis-related genes (qRT-PCR); settings: cancer cells
Protocol: FIG. 11 depicts compound I Targeting p53 (mRNA levels of p53, Puma, and Noxa in cells at 6 hours after compound I treatment. mRNA levels were quantified by qRT-PCR. Data were normalized to GAPDH expression and plotted relative to cells treated with DMSO as control)

mitosis = assay: Cell cycle analysis of DNA content and phospho-histone H3B immunofluorescence
Excerpt: The present invention is aimed to invent powerful, therapeutic small molecules that could target mutant KRAS on its active sites. Here we identified a small molecule, compound I, that binds the GTP/GDP-binding pocket of KRAS. For this purpose we studied a strong correlation of measurement among a larger panel of tumor cell lines expressing KRAS mutation and analyses the potency to inhibit the tumor cell growth activated RAS. […] Therefore, compound I may be considered as a potential KRAS inhibitor for treatment of cancer cells carrying KRAS oncogene.

`CCCCc1ncc(C(=O)C2CC=C(C(N)=O)N2)cc1C(=O)OCC` (stereo not drawn) [Compound 1] was tested, and the “number of cancer cells compared against AMG510 and MRTX849” value [1] was “significant reduction in the number of cancer cells”, the “expression of p53” value (p53) was “upregulating the expression of p53” and the mitotic arrest (mitosis) was “induced mitotic arrest”.
